Reference: patent publication US6107517A, “Thyroid hormone analogues and methods for their preparation” (The Regents of the University of California, priority 1999, dated 2000)

How the values were obtained:
[1] = target: T1, hTRβ (Homo sapiens, UniProt P10828); assay: Receptor binding assay: competition with [125I]T3 for binding to recombinant hTRβ
T1 construct: expressed in transfected cells; host or cells: HeLa cells
T1 sequence (P10828 1-461): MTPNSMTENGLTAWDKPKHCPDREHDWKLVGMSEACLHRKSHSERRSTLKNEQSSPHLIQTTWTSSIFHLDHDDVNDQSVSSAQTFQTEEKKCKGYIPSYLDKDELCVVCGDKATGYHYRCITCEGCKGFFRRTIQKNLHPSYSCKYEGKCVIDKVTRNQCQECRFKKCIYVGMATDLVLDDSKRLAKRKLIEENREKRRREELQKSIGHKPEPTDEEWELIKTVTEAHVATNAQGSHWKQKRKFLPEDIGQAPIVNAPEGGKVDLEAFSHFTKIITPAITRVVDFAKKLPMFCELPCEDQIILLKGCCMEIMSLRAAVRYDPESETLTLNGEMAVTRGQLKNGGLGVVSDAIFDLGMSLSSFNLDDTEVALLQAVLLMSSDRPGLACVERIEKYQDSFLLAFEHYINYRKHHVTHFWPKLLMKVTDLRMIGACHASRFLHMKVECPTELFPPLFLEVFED
Method: (§1) To test the ability of synthesized human thyroid receptor (hTR) ligands to bind to two subtypes of hTR, hTRα and hTRβ, the binding affinity of a TR ligand for a TR can be assayed using TRs expressed in E. coli and [^125 I ] […] The binding affinity of a ligand for its receptor is defined by a constant termed Kd and can be calculated using a curve fitting program.
(§2) The ability of [^125 I] […] In control experiments, either purified recombinant hTRα or hTRβ was incubated with [^125 I] […] To test the analogues, either purified recombinant hTRα or hTRβ was incubated with [^125 I]

[2] = target: T2, hTRα (Homo sapiens, UniProt P10827); assay: Receptor binding assay: competition with [125I]T3 for binding to recombinant hTRα
T2 construct: made in house; host or cells: E. coli
T2 sequence (P10827 1-410 isoform P10827-2): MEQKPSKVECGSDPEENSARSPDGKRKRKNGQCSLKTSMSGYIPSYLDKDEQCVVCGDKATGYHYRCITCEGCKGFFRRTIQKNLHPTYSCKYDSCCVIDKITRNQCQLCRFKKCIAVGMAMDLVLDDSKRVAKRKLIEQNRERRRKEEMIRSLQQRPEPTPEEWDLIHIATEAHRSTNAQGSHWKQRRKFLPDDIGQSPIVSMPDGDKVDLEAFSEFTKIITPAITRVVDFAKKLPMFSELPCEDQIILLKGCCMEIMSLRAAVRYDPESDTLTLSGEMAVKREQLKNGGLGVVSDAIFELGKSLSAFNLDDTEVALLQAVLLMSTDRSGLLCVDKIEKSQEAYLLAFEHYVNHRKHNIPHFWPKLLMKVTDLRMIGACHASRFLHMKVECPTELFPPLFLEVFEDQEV
Method: as §1, §2

[3] = tested on: HeLa cells; assay: Toxicity in HeLa cells (change in cell morphology, or lifting off of cells from a growth surface); format: cell-based
[4] = tested on: luciferase reporter gene (HeLa cells); assay: Luciferase activity in HeLa cells containing reporter constructs but no overexpressed hTRs; format: cell-based; settings: highest concentration [10^-5]
Method: (§3) Cellular transactivation assays can be performed according to the procedure in Ribeiro R. C. et al. (1996) J. Biol. Chem. 271, 17147-17151. Briefly, HeLa cells are grown in 15 cm dishes in DME H-21, 4.5 g/L glucose with 10% newborn bovine serum, 2 mM glutamine, 50 units/ml penicillin, and 50 μg/ml streptomycin.
(§4) For transfections, cells are trypsinized, resuspended in buffer (PBS, 0.1% glucose), and mixed with a reporter gene construct and with or without the appropriate thyroid receptor (TR) expression vectors (CMV TR β1,CMV TR α1). One such reporter gene construct consists of a synthetic TR response element (DR-4) containing two copies of a direct repeat spaced by four nucleotides (AGGTCA-caggAGGTCA) cloned into the HindIII site of the pUC19 polylinker immediately upstream of a minimal (-32/+45) thymidine kinase promoter linked to luciferase coding sequences. Another reporter gene construct that can be used consists of the β-galactosidase coding sequence fused downstream of an actin promoter.
Cells in 0.5 ml of buffer (8+/-2 million cells) are electroporated using a Bio-Rad gene pulser at 0.35 kvolts and 960 microfarads. […] The light output is measured for 10 sec at room temperature with a luminometer (Analytical Luminescence Laboratory, MONOLIGHT^R 1500).

[5] = target: T2, hTRα; assay: Cellular transcription (luciferase) assay in HeLa cells overexpressing hTRα; format: cell-based; settings: for activation of transcription via hTRα (luciferase): 24 hours at 37° C., T3 10^-12 to 10^-7 M, I-3 10^-10 to 3×10^-5 M, I-1 10^-9 to 3×10^-5 M
Method: as §3, §4
(§5) Cells in 0.5 ml of buffer (8+/-2 million cells) are electroporated using a Bio-Rad gene pulser at 0.35 kvolts and 960 microfarads. […] After incubation at 37° C. for 24 hours, incubation media is discarded and the cells are detached with 1 ml of calcium/magnesium-free PBS, 1mM EDTA, prewarmed at 37° C., and transferred to 1.5 ml Eppendorf tubes. Cells are pelleted by centrifugation in a microfuge for 15 seconds at room temperature. The supernatants are aspirated and the pellets are lysed by addition of 120 μl of Tris-Cl 0.25 M pH 7.6, 0.1% Triton. After resuspension by vortexing for 5-10 sec, the lysates are pelleted by centrifugation in a microfuge for 5 min at room temperature. One hundred μl of each Eppendorf tube lysate is added to 300 μl of 25 mM glycylglycine pH 7.8, 15 mM MgSO4, 4 mM EGTA, 15 mM potassium phosphate pH 7.8, 1 mM DTT, 2 mM ATP, and 0.2 mM Luciferine. The light output is measured for 10 sec at room temperature with a luminometer (Analytical Luminescence Laboratory, MONOLIGHT^R 1500). […]

[6] = tested on: β-galactosidase reporter gene construct (HeLa cells); assay: β-galactosidase reporter control expression in HeLa cells; format: cell-based; settings: 1nM T3 or Compound (I-1) 10^-6 M to 10^-5 M
From the text: as §4
Cells in 0.5 ml of buffer (8+/-2 million cells) are electroporated using a Bio-Rad gene pulser at 0.35 kvolts and 960 microfarads. […] After incubation at 37° C. for 24 hours, incubation media is discarded and the cells are detached with 1 ml of calcium/magnesium-free PBS, 1mM EDTA, prewarmed at 37° C., and transferred to 1.5 ml Eppendorf tubes. Cells are pelleted by centrifugation in a microfuge for 15 seconds at room temperature. The supernatants are aspirated and the pellets are lysed by addition of 120 μl of Tris-Cl 0.25 M pH 7.6, 0.1% Triton. […] The light output is measured for 10 sec at room temperature with a luminometer (Analytical Luminescence Laboratory, MONOLIGHT^R 1500).

[7] = target: T1, hTRβ; assay: Cellular transcription (luciferase) assay in HeLa cells overexpressing hTRβ; format: cell-based; settings: for activation of transcription via hTRβ (luciferase): 24 hours at 37° C., T3 10^-12 to 10^-7 M, I-3 10^-10 to 3×10^-5 M, I-1 10^-9 to 3×10^-5 M
Method: as §3, §4, §5

[8] = tested on: TRβ; settings: literature / earlier patent; cited from earlier work

Row | SMILES | Kd [1] [nM] | Kd [2] [nM] | activation of transcription via hTRα (luciferase) [5] | expression of β-galactosidase [6] | activation of transcription via hTRβ (luciferase) [7] | other results
1 | CCCCN(C)C(=O)CCCCCC/C=C\CCC(c1ccc(O)c(C(C)C)c1)c1c(C)cc(OCC(=O)O)cc1C (centres unmarked) [Compound I-2] | ~721 | ~237 | – | – | – | –
2 | CCCCN(C)C(=O)CCCCCCCCCCC(c1ccc(O)c(C(C)C)c1)c1c(C)cc(OCC(=O)O)cc1C (centres unmarked) [Compound I-1] | ~180 | ~77 | did not appear to activate hTR-mediated transcription | not affected | did not appear to activate hTR-mediated transcription | concentration at which toxicity was observed [3]: 10 µM; luciferase activity without cotransfected TR-expression construct [4]: occurs even when a TR-expression construct is not cotransfected into HeLa cells; competition with T3 / antagonism, hTRα [5]: still able to compete with T3; competition with T3 / antagonism, hTRβ [7]: still able to compete with T3
3 | N[C@@H](Cc1cc(I)c(Oc2ccc(O)c(I)c2)c(I)c1)C(=O)O [Compound T3, 3,5,3'-triiodo-L-thyronine, reference compound] | – | – | – | not affected | – | –
4 | C=CCC(c1ccc(O)c(C(C)C)c1)c1c(C)cc(OCC(=O)O)cc1C (centres unmarked) [Compound I-3] | ~36 | ~138 | able to stimulate transcription and translation of the luciferase gene through both subtypes of hTR, though to a lesser degree than. T3 | – | able to stimulate transcription and translation of the luciferase gene through both subtypes of hTR, though to a lesser degree than. T3 | –
5 | Cc1cc(OCC(=O)O)cc(C)c1Cc1ccc(O)c(C(C)C)c1 [GC-1] | – | – | – | – | – | affinity and TR subtype selectivity (background) [8]: high affinity TRP-selective agonist ligand
